Here are results for four molecules from paper PMC2813692 (Molecular cancer therapeutics, 2008).

The test system of data set [1] is metastatic colorectal cancer. Particulars: second-line single-agent; ref [33]; cited from earlier work.
Data set [2] is described as follows: Plasma pharmacokinetics by LC-MS/MS.
For data set [3], the system named is subjects of the Adenoma Prevention with Celecoxib Trial. Particulars: ref [32], cited from earlier work.
[4] abbreviates: capecitabine 1,000 mg/m^2 alone (run-in, Pre), mean ± SD in 8 patients.
The mark [5] stands for this setting: capecitabine 1,000 mg/m^2 in combination with 250 mg gefitinib, C1D1, mean ± SD in 8 patients.

The CL/F is clearance divided by bioavailability, as obtained after extravascular dosing. One may read the Vd/F as the apparent distribution volume after extravascular dosing. The AUC(0-inf) is total exposure, with the tail of the curve extrapolated.

For the molecule `O=C1[O][Pt]2([NH][C@@H]3CCCC[C@H]3[NH]2)[O]C1=O` [oxaliplatin], the response rate in data set [1] is given as 10%.
As to `CCCCCOC(=O)Nc1nc(=O)n([C@@H]2O[C@H](C)[C@@H](O)[C@H]2O)cc1F` [capecitabine], the “effect of gefitinib on the AUC, Cmax, t1/2, and clearance of capecitabine” value in data set [2] (alone (run-in day) vs in combination with gefitinib (cycle 1 day 1)) is listed as “no significant effects”. In data set [2] (setting [4]), this molecule displayed an apparent clearance CL/F of 272 ± 120 L/h and a t1/2λ of 0.93 ± 0.92 h. Moreover, in data set [2] (setting [5]), the apparent clearance (CL/F) was found to be 300 ± 204 L/h and the t1/2λ turned out to be 1.09 ± 0.80 h. Moreover, the Vd/F in data set [2] (human, plasma, oral, 1000 mg/m^2) came to 363 ± 364 L. The AUC(0-inf) in data set [2] (human, plasma, oral, AUC0→∞, capecitabine 1,000 mg/m^2 in combination with 250 mg gefitinib, C1D1, mean ± SD in 8 patients) turned out to be 13.2 ± 8.1 µM·h.
With `Cc1ccc(-c2cc(C(F)(F)F)nn2-c2ccc(S(N)(=O)=O)cc2)cc1` [celecoxib], the “steady-state plasma trough levels of celecoxib” value in data set [2] (across any of the doses tested (data not shown)) is “Neither capecitabine nor gefitinib affected”. In addition, in data set [3] (35 of 1,356 subjects who received celecoxib), the “subjects who experienced cardiovascular events” value was 2.6%. Further, in data set [3] (compared with placebo), the “increase in risk of major fatal and nonfatal cardiovascular events” value was 2.5 fold.
In the case of `COc1cc2ncnc(Nc3ccc(F)c(Cl)c3)c2cc1OCCCN1CCOCC1` [gefitinib], in data set [2] (across dose levels), the “effect of capecitabine on the trough levels of gefitinib” value is “did not affect”.
